From EPA's ToxRefDB 2 come the findings set out here.

A word on the LOAEL: it is the lowest tested level that showed an adverse finding. As a reminder, the NOAEL is the highest dose or exposure tested at which no adverse effect was seen.

Structures are written as SMILES.

In data set [1] the test system is dog. The conditions noted are these: Prenatal developmental toxicity study, beagle, Oral, Feed, dose end: 56 GD.
Data set [2] relates to rat. To be noted: Combined chronic toxicity/carcinogenicity, wistar, Oral, Feed, dose end: 104 week.
Data set [3] has as its system dog. To be noted: Chronic toxicity, beagle, Oral, Feed, dose end: 104 week.
For data set [4], the system named is rabbit. To be noted: Prenatal developmental toxicity study, new zealand white, Oral, Gavage/Intubation, dose end: 18 GD.
Data set [5] relates to rat. The conditions noted are these: Subchronic oral toxicity in rodents, fischer, Feed, dose end: 13 week.
For data set [6], the system named is rat. The conditions noted are these: Combined chronic toxicity/carcinogenicity, fischer, Oral, Feed, dose end: 104 week.
The subject of data set [7] is rat. To be noted: Subchronic oral toxicity in rodents, fischer, Gavage/Intubation, dose end: 13 week.
Data set [8] concerns mouse. The conditions noted are these: Combined chronic toxicity/carcinogenicity, b6c3f1, Oral, Feed, dose end: 105 week.
For data set [9], the system named is mouse. The conditions noted are these: Subchronic oral toxicity in rodents, b6c3f1, Feed, dose end: 13 week.
Data set [10] deals with mouse. To be noted: Subchronic oral toxicity in rodents, b6c3f1, Gavage/Intubation, dose end: 13 week.
For data set [11], the system named is rabbit. The conditions noted are these: Prenatal developmental toxicity study, new zealand white, Oral, Gavage/Intubation, dose end: 28 GD.
Data set [12] deals with rabbit. The conditions noted are these: Prenatal developmental toxicity study, new zealand white, Oral, Gavage/Intubation, dose end: 28 GD. This is another data set of the same source.
Data set [13] concerns rat. To be noted: Peri- and post-natal toxicity study (Segment III), sprague dawley, Oral, Gavage/Intubation, dose end: 40 PND.
Where [14] appears, read: group: developmental, developmental / offspring survival late / [other] / [other] + systemic / in life observation / body weight / offspring (pup) weight.
Where [15] appears, read: group: maternal, reproductive / offspring survival early / dead fetuses / dead fetuses.
The mark [16] stands for this setting: group: cholinesterase, cholinesterase / cholinesterase / cholinesterase / plasma cholinesterase (che).
[17] abbreviates: group: systemic, systemic / hematology / erythrocyte (rbc) count differential / erythrocyte (rbc) + systemic / hematology / reticulocyte / reticulocyte + ….
Setting [18] is: group: systemic, systemic / in life observation / food consumption / food consumption + systemic / in life observation / clinical signs / hindlimb strength….
[19] abbreviates: group: cholinesterase, cholinesterase / cholinesterase / cholinesterase / cholinesterase (che).
[20] abbreviates: group: developmental, developmental / developmental malformation / liver / discolored.
Where [21] appears, read: group: maternal, systemic / in life observation / body weight / body weight + systemic / in life observation / body weight / body weight gain.
Setting [22] is: group: systemic, systemic / in life observation / body weight / body weight + systemic / in life observation / body weight / body weight gain + systemic / in….
The mark [23] stands for this setting: group: systemic, systemic / pathology microscopic / adrenal gland / vacuolization cytoplasmic.
The mark [24] stands for this setting: group: systemic, systemic / pathology microscopic / ovary / hyperplasia + systemic / in life observation / clinical signs / grip strength + systemic / organ ….
[25] abbreviates: group: systemic, systemic / hematology / hemoglobin (hgb) / hemoglobin (hgb) + systemic / in life observation / clinical signs / grip strength + systemic / ….
Setting [26] is: group: systemic, systemic / pathology microscopic / adrenal gland / vacuolization cytoplasmic + systemic / pathology microscopic / ovary / hypertrophy.
The mark [27] stands for this setting: group: systemic, systemic / pathology microscopic / adrenal gland / pigmentation.
Where [28] appears, read: group: systemic, systemic / hematology / hemoglobin (hgb) / hemoglobin (hgb) + systemic / hematology / mean corpuscular hemoglobin concentration (mchc) / ….
Where [29] appears, read: group: developmental, developmental / developmental malformation / bone / delayed ossification + developmental / developmental malformation / bone / hemicentric….
The mark [30] stands for this setting: group: maternal, systemic / in life observation / body weight / body weight gain + systemic / in life observation / food consumption / food consumption.
[31] abbreviates: group: maternal, systemic / in life observation / body weight / body weight gain + systemic / in life observation / food consumption / food consumption + ….
Setting [32] is: group: developmental, developmental / developmental malformation / trunk / omphalocele + systemic / in life observation / body weight / fetal weight.
[33] abbreviates: group: maternal, reproductive / reproductive performance / resorptions / resorptions + systemic / in life observation / body weight / body weight + systemic….
[34] abbreviates: group: developmental, developmental / developmental landmark / vaginal opening / vaginal opening.
Where [35] appears, read: group: maternal, reproductive / reproductive performance / estrous cycle / abnormal + reproductive / reproductive performance / estrous cycle / corpora lutea.
Setting [36] is: group: parental, systemic / clinical chemistry / estradiol / estradiol + systemic / organ weight / kidney / absolute + systemic / organ weight / ovary / ….

Turning to `C1N2CN3CN1CN(C2)C3` [Methenamine], in the data set with dog [1] (setting [14]), the LEL came to 31 mg/kg/day, the lowest-observed-adverse-effect level (LOAEL) was greater than 31 mg/kg/day, the NEL came out at 15 mg/kg/day and the NOAEL was no less than 31 mg/kg/day. In the data set with dog [1] (setting [15]), this compound had an LEL of 31 mg/kg/day, an LOAEL greater than 31 mg/kg/day, an NEL of 15 mg/kg/day and an NOAEL of no less than 31 mg/kg/day.
Turning to `CNC(=O)Oc1cc(C)c(SC)c(C)c1` [Methiocarb], the LEL in the data set with rat [2] (setting [16]) came to 30 mg/kg/day; in the data set with rat [2] (group: systemic, systemic / hematology / erythrocyte (rbc) count differential / erythrocyte (rbc) + systemic / hematology / reticulocyte / reticulocyte), 10 mg/kg/day; in the data set with dog [3] (setting [16]) it was 0.75 mg/kg/day; with dog [3] (group: systemic, systemic / in life observation / food consumption / food consumption), 3 mg/kg/day; in the data set with rabbit [4] (setting [19]), 10 mg/kg/day; in the data set on rabbit [4] (setting [20]), 10 mg/kg/day. The LEL in the data set on rabbit [4] (setting [21]) was 10 mg/kg/day. In addition, the LOAEL is greater than 30 mg/kg/day in the data set with rat [2] (setting [16]); 10 mg/kg/day in the data set on rat [2] (group: systemic, systemic / hematology / erythrocyte (rbc) count differential / erythrocyte (rbc)); 0.75 mg/kg/day in the data set with dog [3] (setting [16]); 12 mg/kg/day in the data set on dog [3] (group: systemic, systemic / in life observation / clinical signs / tremors); 10 mg/kg/day in the data set with rabbit [4] (setting [19]); greater than 10 mg/kg/day with rabbit [4] (setting [20]). For the same compound, in the data set on rabbit [4] (setting [21]), the lowest-observed-adverse-effect level (LOAEL) was determined as 10 mg/kg/day. For the same compound, the NEL in the data set with rat [2] (setting [16]) was 10 mg/kg/day; in the data set with rat [2] (setting [17]), 3.4 mg/kg/day; in the data set on dog [3] (setting [16]) it was less than 0.75 mg/kg/day; in the data set on dog [3] (setting [18]), 0.75 mg/kg/day; in the data set on rabbit [4] (setting [19]) it was 3 mg/kg/day; in the data set on rabbit [4] (setting [20]), 3 mg/kg/day. For the same compound, the NEL in the data set on rabbit [4] (setting [21]) is 3 mg/kg/day. Further, the NOAEL is no less than 30 mg/kg/day in the data set on rat [2] (setting [16]); 3.4 mg/kg/day in the data set on rat [2] (setting [17]); less than 0.75 mg/kg/day in the data set with dog [3] (setting [16]); 3 mg/kg/day in the data set with dog [3] (setting [18]); 3 mg/kg/day with rabbit [4] (setting [19]); no less than 10 mg/kg/day in the data set with rabbit [4] (setting [20]). In addition, in the data set on rabbit [4] (setting [21]), the NOAEL was 3 mg/kg/day.
As for `Cc1ccc(OP(=O)(Oc2ccc(C)cc2)Oc2ccc(C)cc2)cc1.Cc1cccc(OP(=O)(Oc2cccc(C)c2)Oc2cccc(C)c2)c1.Cc1ccccc1OP(=O)(Oc1ccccc1C)Oc1ccccc1C` [Tricresyl phosphate], the LEL in the data set with rat [5] (setting [19]) stood at 55 mg/kg/day; in the data set on rat [5] (setting [23]), 55 mg/kg/day; in the data set on rat [6] (setting [19]), 4 mg/kg/day; with rat [6] (group: systemic, systemic / pathology microscopic / ovary / hyperplasia), 7 mg/kg/day; in the data set with rat [7] (setting [19]), 50 mg/kg/day; in the data set with rat [7] (setting [26]) it was 50 mg/kg/day. Also, the LEL in the data set on mouse [8] (setting [19]) stood at 7 mg/kg/day; in the data set on mouse [8] (setting [27]), 8 mg/kg/day; in the data set with mouse [9] (setting [19]), 45 mg/kg/day; in the data set with mouse [9] (setting [23]), 65 mg/kg/day; in the data set with mouse [10] (setting [19]) it was 50 mg/kg/day; in the data set with mouse [10] (setting [26]) it was 50 mg/kg/day. The LOAEL in the data set on rat [5] (setting [19]) was greater than 750 mg/kg/day; in the data set on rat [5] (setting [22]), greater than 750 mg/kg/day; with rat [6] (setting [19]) it was greater than 30 mg/kg/day; in the data set on rat [6] (setting [24]) it was greater than 30 mg/kg/day; in the data set on rat [7] (setting [19]) it was greater than 800 mg/kg/day; in the data set with rat [7] (setting [25]), greater than 800 mg/kg/day. Besides, the lowest observed adverse effect level (LOAEL) in the data set on mouse [8] (setting [19]) was 7 mg/kg/day; in the data set with mouse [8] (setting [27]), 8 mg/kg/day; with mouse [9] (setting [19]), greater than 900 mg/kg/day; in the data set on mouse [9] (setting [28]), greater than 900 mg/kg/day; in the data set with mouse [10] (setting [19]), greater than 800 mg/kg/day; in the data set on mouse [10] (setting [22]) it was greater than 800 mg/kg/day. The NEL in the data set with rat [5] (setting [19]) was less than 55 mg/kg/day; with rat [5] (setting [23]), less than 55 mg/kg/day; in the data set on rat [6] (setting [19]) it was less than 4 mg/kg/day; with rat [6] (setting [24]), 4 mg/kg/day; with rat [7] (setting [19]) it was less than 50 mg/kg/day; in the data set on rat [7] (setting [26]), less than 50 mg/kg/day. In addition, the NEL with mouse [8] (setting [19]) was less than 7 mg/kg/day; with mouse [8] (setting [27]), less than 8 mg/kg/day; with mouse [9] (setting [19]) it was less than 45 mg/kg/day; with mouse [9] (setting [23]) it was less than 65 mg/kg/day; in the data set with mouse [10] (setting [19]), less than 50 mg/kg/day; in the data set on mouse [10] (setting [26]), less than 50 mg/kg/day. Besides, the no observed adverse effect level (NOAEL) in the data set with rat [5] (setting [19]) was no less than 750 mg/kg/day; in the data set with rat [5] (setting [22]), no less than 750 mg/kg/day; in the data set with rat [6] (setting [19]) it was no less than 30 mg/kg/day; with rat [6] (setting [24]) it was no less than 30 mg/kg/day; in the data set on rat [7] (setting [19]) it was no less than 800 mg/kg/day; in the data set on rat [7] (setting [25]), no less than 800 mg/kg/day. For the same compound, the no observed adverse effect level (NOAEL) was less than 7 mg/kg/day in the data set on mouse [8] (setting [19]); less than 8 mg/kg/day in the data set with mouse [8] (setting [27]); no less than 900 mg/kg/day with mouse [9] (setting [19]); no less than 900 mg/kg/day in the data set with mouse [9] (setting [28]); no less than 800 mg/kg/day with mouse [10] (setting [19]); no less than 800 mg/kg/day in the data set with mouse [10] (setting [22]).
As to `O.O.[Cu]` [Copper(II) hydroxide], the LEL in the data set with rabbit [11] (setting [29]) stood at 18 mg/kg/day; in the data set on rabbit [11] (setting [30]) it was 9 mg/kg/day; in the data set with rabbit [12] (setting [32]), 30 mg/kg/day; in the data set with rabbit [12] (group: maternal, systemic / in life observation / body weight / body weight + systemic / in life observation / body weight / body weight gain + systemic / in…), 15 mg/kg/day. In addition, the lowest-observed-adverse-effect level (LOAEL) with rabbit [11] (setting [29]) was 18 mg/kg/day; in the data set with rabbit [11] (setting [30]), 9 mg/kg/day; in the data set on rabbit [12] (setting [32]) it was greater than 30 mg/kg/day; with rabbit [12] (setting [33]) it was greater than 30 mg/kg/day. Besides, the NEL with rabbit [11] (setting [29]) amounted to 9 mg/kg/day; in the data set with rabbit [11] (setting [31]), 6 mg/kg/day; with rabbit [12] (setting [32]), 15 mg/kg/day; with rabbit [12] (setting [33]) it was 7.5 mg/kg/day. Also, the NOAEL in the data set on rabbit [11] (setting [29]) is 9 mg/kg/day; in the data set with rabbit [11] (setting [31]), 6 mg/kg/day; in the data set on rabbit [12] (setting [32]) it was no less than 30 mg/kg/day; in the data set with rabbit [12] (setting [33]), no less than 30 mg/kg/day.
In the data set on rat [13] (setting [34]), `CC(C)OC(=O)c1ccc(O)cc1` [Isopropylparaben] had an LEL of 250 mg/kg/day, an LOAEL greater than 1000 mg/kg/day, an NEL of 62.5 mg/kg/day and a no-observed-adverse-effect level (NOAEL) of no less than 1000 mg/kg/day. For the same compound, in the data set on rat [13] (setting [35]), the LEL was found to be 1000 mg/kg/day, the lowest-observed-adverse-effect level (LOAEL) is greater than 1000 mg/kg/day, the NEL worked out at 250 mg/kg/day and the NOAEL was no less than 1000 mg/kg/day. Further, in the data set with rat [13] (setting [36]), the LEL stood at 1000 mg/kg/day, the lowest-observed-adverse-effect level (LOAEL) was greater than 1000 mg/kg/day, the NEL was found to be 250 mg/kg/day and the NOAEL was no less than 1000 mg/kg/day.
